Results: patent US8017135B1, “Lipid-drug conjugates for local therapy of eye diseases” (The Regents of the University of California, priority 2003, dated 2011)
Where “and” joins values, the source holds several entries; their conditions need not be identical. Equal values may be shown once. Entries after “also recorded” stand apart in the source; their conditions may differ.

What was measured:
HSV-1 [1] = experiment: HSV-1 rabbit retinitis treatment study; assay type: in vivo; settings: intravitreal drug after induction of retinitis; for thickness of the retina (histology): 5% dextrose eyes 46 μm, P<0.05
Description: (§1) For the pharmacokinetic studies, the highest non toxic dose from the results of the toxicity studies, 100 μg/eye, was intravitreally injected into 24 eyes of 16 rabbits, and the remaining 8 eyes were injected with the same volume of 5% dextrose as control. Two animals, 3 eyes with drug and 1 eye with 5% dextrose, were used at each time point. The time points used were post-injections on day 1, day 3, week 1, week 2, week 3, week 5, week 8, and week 10. After animal sacrifice, globes were enucleated and kept on ice before freezing and dissecting. The globes were then submerged in −40 C.° 2-methylbutane in a beaker sitting in a dry ice ethanol bath for 30 seconds. The frozen globe was cut into two halves through the optic nerve and further dissected under a surgical microscope to separate the vitreous and retina. These different tissues from the same eyes were separately stored in the pre-weighed and pre-labeled glass vials. The vials were kept in −70 C for HPLC analysis. 3. HSV-1 rabbit retinitis treatment study of HDP-cCDV: For the retinitis intervention study, 72 rabbits were used, including 14 rabbits for the treatment study and 58 for the pretreatment study. Only the right eye of each rabbit was used. Ophthalmoscopic retinitis grading was performed using a previously reported method with a standardized grading scheme.^7 For the treatment study, the right eyes of 14 rabbits were intravitreally injected with 0.06 mL of a 5×10^−5 dilution of 10^−7.6 mean tissue culture infective dose (TCID 50)/mL HSV-1. When retinitis developed and reached grade 1 (earliest detected retinitis grade: 1 or 2), 5 infected eyes received 100 micrograms of HDP-cCDV in 0.1 mL 5% dextrose, 4 infected eyes received an equivalent dose of free CDV, and the other 5 infected eyes received 5% dextrose. For the pretreatment study, 100 μg/eye was tested. 58 rabbits were divided into four groups: the 21 day, 42 day, 68 day, and 98 day groups. 15 rabbits were used for each time point of the pretreatment study (except 13 rabbits were used for the 98 day time point). At each time point 5 rabbits received 100 micrograms (in 0.1 ml 5% dextrose) of HDP-cCDV, 5 rabbits received an equivalent dose of CDV, and 5 rabbits received 5% dextrose (for the 98 day pre-treatment only 3 rabbits were used for HDP-cCDV). The HSV-1 virus dose, injection method, and clinical retinitis grading were done as previously described.^2,7 Rabbits were killed 2 weeks after development of retinitis. Retinitis was graded on day 3, 5, 7, 9, 11, 14. Rabbits without retinitis 3 or 4 weeks after HSV-1 inoculation were sacrificed.
4. Histologic evaluation of retinal damage and choroidal inflammation for the rabbit eyes in the treatment group. […] Thickness was measured with a reticule installed in the eyepiece of the microscope. […]

HSV-1 [2] = experiment: HSV-1 rabbit retinitis pretreatment study; assay type: in vivo; settings: for rabbits that developed retinitis: 3-week pretreatment, 100 μg/eye or equivalent dose
Description: as §1
For the 3-week pretreatment study, all five rabbits that received intravitreal injection of 5% dextrose developed typical retinitis. In contrast, none of the rabbits that received the intravitreal injection of HDP-cCDV or CDV developed retinitis (Table 1). For the 47-day pretreatment, at day 7 after virus inoculation all control eyes developed retinitis with a median grade of 4. […] In contrast, out of 5 rabbits that received HDP-cCDV pretreatment, only 2 developed grade 2 retinitis. There is a significant difference in retinitis scores between HDP-cCDV pretreated eyes and CDV pretreated eyes or control eyes (p<0.05, Nonparametric Tukey-type tests). […] The other two groups (10 eyes) with dextrose or CDV pretreatment all had grade 4 retinitis. The difference in retinitis scores among the three groups was very significant (P=0.0046, Kruskal-Wallis Tests) (Table 1). For the 100-day pretreatment study, one of four rabbits in the HDP-cCDV pretreated group died before virus inoculation. […] The HDP-cCDV pretreated group had lower retinitis scores than the retinitis scores in the dextrose pretreated group (P<0.05, Nonparametric Tukey-type tests).

[3] = literature comparison; cited from earlier work
HSV-1 [4] = settings: single intravitreal injection; cited from earlier work
[5] = HDP-P-Ara G intravitreal toxicity
laser induced rat CNV = experiment: Prophylactic treatment of laser induced rat CNV (fluorescein angiograph); assay type: in vivo
Text: The retina was normal elsewhere.
Ara-G has been used as an antiproliferative agent to treat human leukemia and lymphoma.^11,12 Ara-G can cause apoptosis of fast growing cells by incorporating into the cell's DNA to inhibit the proliferation.^13 Normal cells in the retina are differentiated cell populations and are not sensitive to Ara-G. In contrast, abnormal proliferating cells in proliferative vitreoretinopathy experience vigorous DNA synthesis and are sensitive to Ara-G. The lipid prodrug of Ara-G was chosen to be useful to treat proliferative vitreoretinopathy or other intraocular proliferating disorders. […] No intraocular drug toxicity was observed except for the local retina contact induced retinal toxicity from the high dose injections. It was hypothesized that the local retinal toxicity could be eliminated by using small crystalline particles, especially when used in a human eye with a much larger vitreous volume than rabbit (4 ml in human eye versus 1.4 ml in rabbit eye). To quickly gather the therapeutic data of this new compound on proliferation, 3 μg of HDP-P-Ara G (equivalent to 75 μg in the rabbit eye [(25+125)/2]) was injected into the right eye of each rat 3 days before induction of CNV by laser. The drug led to a 39% reduction of leaking laser burns in this CNV rat model (39% versus 66%, p=0.009). […] HDP-P-Ara G could be useful for prevention or treatment of the devastating sight-threatening eye disease, age related macular degeneration.

[6] = previously determined; cited from earlier work
[7] = rabbit, in vivo, 100 ug
Description: For the pharmacokinetic studies, the highest non toxic dose from the results of the toxicity studies, 100 μg/eye, was intravitreally injected into 24 eyes of 16 rabbits, and the remaining 8 eyes were injected with the same volume of 5% dextrose as control. Two animals, 3 eyes with drug and 1 eye with 5% dextrose, were used at each time point. The time points used were post-injections on day 1, day 3, week 1, week 2, week 3, week 5, week 8, and week 10. After animal sacrifice, globes were enucleated and kept on ice before freezing and dissecting. The globes were then submerged in −40 C.° 2-methylbutane in a beaker sitting in a dry ice ethanol bath for 30 seconds. The frozen globe was cut into two halves through the optic nerve and further dissected under a surgical microscope to separate the vitreous and retina. These different tissues from the same eyes were separately stored in the pre-weighed and pre-labeled glass vials. The vials were kept in −70 C for HPLC analysis. 3. […] When retinitis developed and reached grade 1 (earliest detected retinitis grade: 1 or 2), 5 infected eyes received 100 micrograms of HDP-cCDV in 0.1 mL 5% dextrose, 4 infected eyes received an equivalent dose of free CDV, and the other 5 infected eyes received 5% dextrose. […]

[8] = Intravitreal toxicity of HDP-cCDV; assay type: in vivo, rabbit
Description: All procedures were adherent to the ARVO Statement for the Use of Animals in Ophthalmic and Vision Research Intravitreal pharmacokinetics of small particle formulation of HDP-P-GCV: Three rabbits received 8.85 μmoles of the drug in their right eyes and 2.8 μmoles in the left eye. 2.8 μmole was previously determined to be non toxic.^2 Vitreous sampling was performed on both eyes of each rabbit at post injection week 1, week 2, week 3, week 5, week 8, week 12, and week 15. 50 to 100 μl of vitreous fluid was aspirated and placed in a pre-weighed vial for HPLC analysis of HDP-P-GCV levels as described before. 2. Intravitreal toxicity and pharmacokinetics of HDP-cCDV: For toxicity studies, five doses (10 μg or 0.018 μmole, 55 μg or 0.1 μmole, 100 μg or 0.18 μmole, 550 μg or 1.01 μmole, 1000 μg or 1.84 μmole in 50 μl of 5% dextrose) were tested in 8 rabbits, 16 eyes for 8 weeks. One eye of each animal was injected with drug and the fellow eye was injected with 5% dextrose as the control. Before drug injection, baseline IOP and fundus examination were documented. Drug or 5% dextrose was intravitreally injected into vitreous cavity as previously described.^2 After injection, eyes were monitored with a hand held tonometer (Tonopen, Medtronic, Jacksonville, Fla.), slit-lamp, and indirect ophthalmoscope at day 3, week 1, week 2, week 3, week 5, and week 8. […]

[9] = Laser light scattering particle size analysis; assay type: physicochemical; settings: dry powder, laser diffraction
Description: Unmodified HDP-P-GCV and microfluidized HDP-P-GCV were subjected to laser light scattering particle size analysis at Cirrus Pharmaceuticals, Inc., Durham, N.C. Measurements were performed using a HELOS laser diffraction instrument (Sympatec, Lawrenceville, N.J.), equipped with a R3 lens (0.5 to 175 microns).
For each measurement, approximately 100 mg of dry sample was dispersed at a feed rate of 75% using the VIBRI and RODOS attachments set at a main pressure of 4.0 bar and aventury pressure of 100 mbar. The triggering conditions were set to start measurement when channel 25 e 1% and stop when channel 25 d 0.5%. Data were analyzed using the Fraunhoffer method by mean of the WINDOX 3.2 release 4 software. HDP-cCDV: cCDV was prepared from CDV as described previously^3 except that the compound was isolated as the dicyclohexyl-morpholinocarboxamidine salt. The scheme of the synthesis is illustrated in FIG. 1. The purity (greater than 98%) of these compounds used in this study was confirmed by thin layer chromatography, nuclear magnetic resonance spectroscopy, and mass spectroscopy as reported previously.^4,5
An aqueous slurry of HDP-P-GCV was subjected to five consecutive cycles of microfluidization. […] Finally, an untreated formulation of HDP-cCDV powder (Panel C) was also analyzed.

[10] = 47-day pretreatment, day 7 after virus inoculation
[11] = 68-day pretreatment, day 14 following virus inoculation

Structure (SMILES): Nc1ccn(C[C@@H](CO)OCP(=O)(O)O)c(=O)n1 [CDV, cidofovir, reference compound]
- vitreous cloudiness (HSV-1 [1]): noticeably less severe than the control eyes
- thickness of the retina (histology) (HSV-1 [1]): 95 μm
- rabbits that developed retinitis (HSV-1 [2]): none
- median retinitis grade (HSV-1 [2]; [10]): 3
- rabbits that developed retinitis (out of 5) (HSV-1 [2]; [10]): all developed retinitis
- retinitis grade (HSV-1 [2]; [11]): 4
- vitreous half-life [3]: 20 h

Structure (SMILES): Nc1nc(O)c2ncn(COC(CO)CO)c2n1 [GCV, ganciclovir, reference compound]
- duration of prevention of HSV-1 viral infection of retina (HSV-1 [4]): less than one-week protection

Structure (SMILES): CCCCCCCCCCCCCCCCOCCCOP(=O)(O)OCC1OC(n2cnc3c(=O)[nH]c(N)nc32)C(O)C1O (stereo not shown) [HDP-P-Ara G, 1-O-hexadecyloxypropyl-phospho-arabinofuranosylguanosine]
- pathology study ([5]; 25 μg intravitreal injections): no toxicity
- pathology study ([5]; 125 μg intravitreal injections): localized retinal structural disturbance and proliferation or hypertrophy of retinal pigment epithelium
- ERGs ([5]; all eyes including the ones with local retinal toxicity): normal
- clinical toxicity observation ([5]; high dose (125 μg/eye), where drug depot touched the retina): local retinal toxicity that presented as a local retinal disturbance of fundus pigmentation; also recorded: local retinal depigmentation area
- time drug depot was observable ([5]; low dose (25 μg/eye)): 2 weeks
- retinal toxicity in the rat eyes (laser induced rat CNV; 3 μg intravitreal): did not cause any retinal toxicity
- reduction of CNV formation (leaking laser burns) (laser induced rat CNV; 3 μg intravitreal 3 days before laser, versus control eyes): 39%
- burns actively leaking in treated eyes (laser induced rat CNV; 3 μg intravitreal 3 days before laser, control eyes 66%, p=0.009): 40% and 39%

Structure (SMILES): CCCCCCCCCCCCCCCCOCCCOP(=O)(O)OCC(CO)OCn1cnc2c(=O)[nH]c(N)nc21 (stereo not shown) [HDP-P-GCV, Hexadecylpropanediol-3-phospho-ganciclovir]
- non toxic intravitreal dose [6]: 2.8 µmol
- duration of prevention of HSV-1 viral infection of retina (HSV-1 [4]): 20 weeks

Structure (SMILES): CCCCCCCCCCCCCCCCOCCCOP1(=O)COC(Cn2ccc(N)nc2=O)CO1 (stereo not shown) [HDP-cCDV, 1-O-hexadecyloxypropyl-cyclic-cidofovir]
- estimated vitreous half-life [7]: 151 h
- vitreous cloudiness (HSV-1 [1]): noticeably less severe than the control eyes
- thickness of the retina (histology) (HSV-1 [1]): 80 μm
- rabbits that developed retinitis (HSV-1 [2]): none
- rabbits that developed retinitis (out of 5) (HSV-1 [2]; [10]): 2
- retinitis grade of the rabbits that developed retinitis (HSV-1 [2]; [10]): 2
- retinitis outcome (HSV-1 [2]; [11]): only two rabbits developed grade 3 and grade 4 retinitis, the other three rabbits had complete protection
- retinitis outcome (HSV-1 [2]; 100-day pretreatment, three rabbits, day 9): one did not develop retinitis, and the other two had grade 3 retinitis
- duration of pharmacologic effect against HSV-1 infection of the rabbit retina (HSV-1 [2]; single intravitreal pretreatment 100 μg/eye): at least 100 days
- toxicity findings ([8]; 550 μg/eye and 1000 μg doses, one eye each): local cataract and mild iritis in two eyes
- highest non-toxic dose ([8]; intravitreal injection, 8 weeks observation): 100 μg/eye
- volume median diameter (×50) [9]: 8.9 microns

Structure (SMILES): Nc1ccn(C[C@H]2COP(=O)(O)CO2)c(=O)n1 [cCDV, cyclic cidofovir]
- vitreous half-life [3]: 10 h
